# Assay results from patent US4022907A, “Pharmaceutical compositions containing 1,3-dithiacycloalkylidene malonates” (Nihon Nohyaku Co. Ltd., priority 1975, dated 1977).
# Experiments:
# [1] = tested on: CCl4-induced hepatotoxicity; test: Protection against CCl4-induced hepatotoxicity (mice); type: in vivo, mice (four-week-old male, dd strain); conditions: 250 mg/kg oral, average of 5 to 6 mice; for Liver damage index: CCl4 0.05 ml/kg oral after 6 h, 24 h after CCl4, scale 0 Normal, 2 Slightly recognized, 4 Clearly observable damage, 6 Heavy damage, CCl4 alone 5.2, control 0; for p-GPT: plasma, 24 h after CCl4 0.05 ml/kg oral, values over 1,000 regarded as 1,000, CCl4 alone >1,000, control 35
# Text: Carbon tetrachloride (CCl4) administration induces centrilobular necrosis of the liver associated with loss of diphosphopyridine nucleotide, hepatic glycogen, coenzyme A and increase in neutral fat. Release of several enzymes from the hepatocytes, and increase of enzyme activities in the plasma are recognized as the result of the damage of the liver. A suitable means for evaluating the degree of damage induced by CCl4 or the degree of protection afforded by drugs is to study the plasma glutamic-pyruvic transaminase(p-GPT) activity.
# Methods: The test compounds were dissolved or suspended in olive oil and administered orally at the dose of 250 mg/kg to the mice (Four-week-old male mice-dd strain). After 6 hours, CCl4 was administered orally (0.05 ml/kg as olive oil solution). Animals were killed 24 hours after CCl4 administration, and the liver was grossly observed. The plasma was obtained by centrifugation. Activities of p-GPT were determined by the method of Reitman and Frankels and expressed in Karmen units. Score for liver damage index was as follows:
# Each figure indicates average of 5 to 6 mice. Values of p-GPT over 1,000 Karmen unit regarded as 1,000 for calculation of average for convenience.
# [2] = tested on: thioacetamide-induced hepatotoxicity; test: Therapeutic effect against thioacetamide-induced hepatotoxicity, BSP test (rats); type: in vivo, rats (Sprague Dawley strain)
# Protocol: In the tests of this Example, TAA was repeatedly administered to animals to prepare test animals suffering from somewhat chronic liver damages, and then the present compounds were administered thereto to know whether or not the compounds were effective against chronic hepatitis.
# The degree of the liver damage and the therapeutic effects of the compounds were evaluated according to BSP test. The BSP test is a method in which BSP (sulfobromophthalein sodium), a dye known to be quickly metabolized in and excreted from the liver, is intravenously injected into animals and, after a definite period of time, the blood is taken out to measure the amount of BSP remaining in the plasma. In case the animals are suffering from the liver damage, the dye will remain, according to the degree of the damage, at the stage where a major portion of BSP is metabolized and excreted in the case of normal animals. Five groups of rats (Sprague Dawley strain) were treated as follows:
# Group A: The rats were orally administered with 100 mg/kg of thioacetamide,at 3 days intervals for 36 days (12 times of the administration), then were submitted for 10 days to a normal diet.
# Group B: The rats were orally administered with 100 mg/kg of thioacetamide at 3 days intervals for 36 days (12 times of the administration), then were submitted for 10 days to the normal diet + 0.2% of compound 4.
# Group C: The rats were orally administered with 100 mg/kg of thioacetamide at 3 days intervals for 36 days (12 times of the administration) then were submitted for 10 days to the normal diet + 0.2% of compound 2.
# Group D: The rats were orally administered with 100 mg/kg of thioacetamide at 3 days intervals for 36 days((12 times of the administration) then were submitted for 10 days to the normal diet + 0.2% of anethol trithion.
# Group E: The rats were submitted to the normal diet as the control.
# Five rate were sacrificed from each group at appropriate intervals for BSP (sulfobromophthalein) test, the results of which were shown as amounts (mg) of BSP remaining in 1 dl of plasma.
# [3] = tested on: alcohol metabolic function of liver; test: Effect on concentration of ethylalcohol in the blood (mice); type: in vivo; conditions: 250 mg/kg oral pre-treatment, ethylalcohol 1,000 mg/kg oral after 6 h
# Protocol: The test compounds are dissolved or suspended in olive oil and administered orally at the dose of 250 mg/kg to the mice. After 6 hours, 1,000 mg/kg of ethylalcohol was given orally. Blood was taken in a capillary from caudal vein at the time indicated in the results. The plasma was obtained by centrifugation. The concentration of ethylalcohol in the plasma was measured by FID type gas liquid chromatography. Five mice were used for each group.
# [4] = tested on: glucose metabolic function of liver; test: Effect on glucose metabolism, blood sugar (mice); type: in vivo; conditions: 250 mg/kg oral pre-treatment, glucose 4.0 g/kg oral after 6 h
# Protocol: Methods: The test compounds dissolved in olive oil and administered orally at the dose of 250 mg/kg to the mice. After 6 hours, 4.0 g/kg of glucose was orally administered. The same amount of glucose was given to the control animals. 0.02 ml of blood was taken from caudal vein of the mice at 30, 60, 90 and 120 min. after glucose administration. Blood sugar was measured by the procedure of SomogyiNelson. Number of animals used was 5 to 6 mice for each treatment.
# [5] = Acute oral toxicity (LD50) to male mice; conditions: mouse, in vivo
# Protocol: For example the LD50 values of the compounds 4, 11 and 17 in Table 1 are more than 5,000 mg/kg. Further, these compounds have no detrimental effects on test animals administered therewith, so far as the doses thereof are within an ordinary administration range.
# [6] = 2 days of normal diet + 0.2% compound after 12 TAA administrations, TAA only 12.7±3.7, normal 0.4±0.1
# [7] = 5 days of normal diet + 0.2% compound after 12 TAA administrations, TAA only 8.7±1.9
# [8] = 10 days of normal diet + 0.2% compound after 12 TAA administrations, TAA only 1.4±0.4, normal 0.6±0.1
structure (smiles),measurement,setting,value
"COc1ccc(-c2cc(=S)ss2)cc1 [Anetol trithion, anethol trithion, reference compound]",Liver damage index,[1],1.6
same,p-GPT,[1],38 Karmen units
same,BSP remaining in plasma,[2]; [6],9.7 ± 4.1 mg/dL
same,BSP remaining in plasma,[2]; [7],7.3 ± 3.4 mg/dL
same,BSP remaining in plasma,[2]; [8],0.9 ± 0.1 mg/dL
COC(=O)C(C(=O)OC)=C1SCS1 [Compound 1],Liver damage index,[1],1.5
same,p-GPT,[1],341 Karmen units
CCOC(=O)C(C(=O)OCC)=C1SCS1 [Compound 2],Liver damage index,[1],0.3
same,p-GPT,[1],29 Karmen units
same,BSP remaining in plasma,[2]; [6],7.5 ± 1.2 mg/dL
same,BSP remaining in plasma,[2]; [7],3.8 ± 0.4 mg/dL
same,BSP remaining in plasma,[2]; [8],0.7 ± 0.1 mg/dL
same,Concentration of Ethylalcohol in Plasma,"[3]; 0 min, control 27 ± 17",11 ± 4 ppm.
same,Concentration of Ethylalcohol in Plasma,"[3]; 5 min, control 875 ± 203",714 ± 167 ppm.
same,Concentration of Ethylalcohol in Plasma,"[3]; 15 min, control 810 ± 191",655 ± 102 ppm.
same,Concentration of Ethylalcohol in Plasma,"[3]; 30 min, control 690 ± 214",426 ± 101 ppm.
same,Concentration of Ethylalcohol in Plasma,"[3]; 60 min, control 167 ± 76",15 ± 10 ppm.
same,Blood Sugar,"[4]; 0 min, control 145 ± 11.8",142 ± 22.8 mg/dL
same,Blood Sugar,"[4]; 30 min, control 311 ± 21.9",258 ± 17.5 mg/dL
same,Blood Sugar,"[4]; 60 min, control 290 ± 14.6",229 ± 18.7 mg/dL
same,Blood Sugar,"[4]; 90 min, control 263 ± 13.1",183 ± 18.1 mg/dL
same,Blood Sugar,"[4]; 120 min, control 251 ± 13.5",150 ± 20.4 mg/dL
"CCCOC(=O)C(C(=O)OCCC)=C1SCS1 [Compound 3, Di-n-propyl 1,3-dithietan-2-ylidene malonate]",Liver damage index,[1],0.2
same,p-GPT,[1],22 Karmen units
"CC(C)OC(=O)C(C(=O)OC(C)C)=C1SCS1 [Compound 4, Diisopropyl 1,3-dithietan-2-ylidene malonate]",LD50,[5],> 5000 mg/kg
same,Liver damage index,[1],0.0
same,p-GPT,[1],20 Karmen units
same,BSP remaining in plasma,[2]; [6],7.1 ± 0.8 mg/dL
same,BSP remaining in plasma,[2]; [7],3.2 ± 0.6 mg/dL
same,BSP remaining in plasma,[2]; [8],0.6 ± 0.2 mg/dL
same,Concentration of Ethylalcohol in Plasma,"[3]; 0 min, control 27 ± 17",10 ± 3 ppm.
same,Concentration of Ethylalcohol in Plasma,"[3]; 5 min, control 875 ± 203",695 ± 122 ppm.
same,Concentration of Ethylalcohol in Plasma,"[3]; 15 min, control 810 ± 191",637 ± 113 ppm.
same,Concentration of Ethylalcohol in Plasma,"[3]; 30 min, control 690 ± 214",410 ± 77 ppm.
same,Concentration of Ethylalcohol in Plasma,"[3]; 60 min, control 167 ± 76",15 ± 8 ppm.
same,Blood Sugar,"[4]; 0 min, control 145 ± 11.8",168 ± 20.4 mg/dL
same,Blood Sugar,"[4]; 30 min, control 311 ± 21.9",280 ± 10.8 mg/dL
same,Blood Sugar,"[4]; 60 min, control 290 ± 14.6",215 ± 20.1 mg/dL
same,Blood Sugar,"[4]; 90 min, control 263 ± 13.1",164 ± 16.5 mg/dL
same,Blood Sugar,"[4]; 120 min, control 251 ± 13.5",165 ± 15.3 mg/dL
CCCCOC(=O)C(C(=O)OCCCC)=C1SCS1 [Compound 5],Liver damage index,[1],1.2
same,p-GPT,[1],158 Karmen units
CCCCCOC(=O)C(C(=O)OCCCCC)=C1SCS1 [Compound 6],Liver damage index,[1],1.2
same,p-GPT,[1],167 Karmen units
CCOC(=O)C(C(=O)OC(C)C)=C1SCS1 [Compound 7],Liver damage index,[1],0.6
same,p-GPT,[1],54 Karmen units
COC(=O)C(C(=O)OC)=C1SCCCS1 [Compound 8],Liver damage index,[1],2.8
same,p-GPT,[1],437 Karmen units
CCOC(=O)C(C(=O)OCC)=C1SCCCS1 [Compound 9],Liver damage index,[1],2.2
same,p-GPT,[1],366 Karmen units
"CCCOC(=O)C(C(=O)OCCC)=C1SCCCS1 [Compound 10, Di-n-propyl 1,3-dithian-2-ylidene malonate]",Liver damage index,[1],2.2
same,p-GPT,[1],50 Karmen units
same,Concentration of Ethylalcohol in Plasma,"[3]; 0 min, control 27 ± 17",13 ± 4 ppm.
same,Concentration of Ethylalcohol in Plasma,"[3]; 5 min, control 875 ± 203",753 ± 78 ppm.
same,Concentration of Ethylalcohol in Plasma,"[3]; 15 min, control 810 ± 191",698 ± 95 ppm.
same,Concentration of Ethylalcohol in Plasma,"[3]; 30 min, control 690 ± 214",451 ± 114 ppm.
same,Concentration of Ethylalcohol in Plasma,"[3]; 60 min, control 167 ± 76",12 ± 11 ppm.
same,Blood Sugar,"[4]; 0 min, control 145 ± 11.8",148 ± 14.7 mg/dL
same,Blood Sugar,"[4]; 30 min, control 311 ± 21.9",267 ± 21.2 mg/dL
same,Blood Sugar,"[4]; 60 min, control 290 ± 14.6",222 ± 18.3 mg/dL
same,Blood Sugar,"[4]; 90 min, control 263 ± 13.1",162 ± 14.4 mg/dL
same,Blood Sugar,"[4]; 120 min, control 251 ± 13.5",148 ± 18.8 mg/dL
"CC(C)OC(=O)C(C(=O)OC(C)C)=C1SCCCS1 [Compound 11, Diisopropyl 1,3-dithian-2-ylidene malonate]",LD50,[5],> 5000 mg/kg
same,Liver damage index,[1],2.3
same,p-GPT,[1],215 Karmen units
CCCCOC(=O)C(C(=O)OCCCC)=C1SCCCS1 [Compound 12],Liver damage index,[1],1.8
same,p-GPT,[1],284 Karmen units
CCOC(=O)C(C(=O)OC(C)(C)C)=C1SCCCS1 [Compound 13],Liver damage index,[1],1.4
same,p-GPT,[1],125 Karmen units
COC(=O)C(C(=O)OC)=C1SCCCCS1 [Compound 14],Liver damage index,[1],3.5
same,p-GPT,[1],762 Karmen units
CCOC(=O)C(C(=O)OCC)=C1SCCCCS1 [Compound 15],Liver damage index,[1],3.2
same,p-GPT,[1],533 Karmen units
CCCOC(=O)C(C(=O)OCCC)=C1SCCCCS1 [Compound 16],Liver damage index,[1],3.0
same,p-GPT,[1],710 Karmen units
"CC(C)OC(=O)C(C(=O)OC(C)C)=C1SCCCCS1 [Compound 17, diisopropyl 1,3-dithiepan-2-ylidene malonate]",LD50,[5],> 5000 mg/kg
same,Liver damage index,[1],3.6
same,p-GPT,[1],688 Karmen units
CCCCOC(=O)C(C(=O)OCCCC)=C1SCCCCS1 [Compound 18],Liver damage index,[1],0.5
same,p-GPT,[1],41 Karmen units
CCCCCOC(=O)C(C(=O)OCCCCC)=C1SCCCCS1 [Compound 19],Liver damage index,[1],0.7
same,p-GPT,[1],157 Karmen units
CCOC(=O)C(C(=O)OC(C)CC)=C1SCCCCS1 (stereo not shown) [Compound 20],Liver damage index,[1],1.0
same,p-GPT,[1],188 Karmen units
same,Concentration of Ethylalcohol in Plasma,"[3]; 0 min, control 27 ± 17",15 ± 2 ppm.
same,Concentration of Ethylalcohol in Plasma,"[3]; 5 min, control 875 ± 203",710 ± 134 ppm.
same,Concentration of Ethylalcohol in Plasma,"[3]; 15 min, control 810 ± 191",652 ± 143 ppm.
same,Concentration of Ethylalcohol in Plasma,"[3]; 30 min, control 690 ± 214",404 ± 93 ppm.
same,Concentration of Ethylalcohol in Plasma,"[3]; 60 min, control 167 ± 76",18 ± 6 ppm.
"NC(=O)CCCCC1CCSS1 (stereo not shown) [Thioctic acid amide, reference compound]",Liver damage index,[1],4.8
same,p-GPT,[1],763 Karmen units
